US20240400506A1, “DIROXIMEL FUMARATE PARTICLES HAVING IMPROVED FLOW PROPERTIES AND METHODS OF MAKING SAME” (BIOGEN MA INC., priority 2021, published 2024)
Where a name gives a salt, the structure may show the parent alone.

Tests used:
[1] = Particle size distribution (volume diameter D10/D50/D90, span); format: physicochemical; details: for Final PSD after ripening D10 / Final PSD after ripening D50 / Final PSD after ripening D90: after ripening at 40, 43 or 48 °C; for D10 (values across lots) / span (values across lots): range over the lots of the example
Protocol: Particle size is expressed in terms of volume diameter, which is used to provide a dimensional description of particles which are non-spherical. “Volume diameter” refers to the diameter of a sphere with equal volume of the non-spherical particle. Particle size can be measured according to methods well known in the art, including a laser diffraction technique that correlates light scattering to particle volume on which effective length or effective diameter is calculated.
Particle size distribution is expressed in terms of D50, D10, D90 and span. “Span” is a measure for particle size distribution. It is calculated according to the following equation: […]
“D50”, also known as the median diameter, corresponds to the value under which 50% of the particles has a lower volume diameter. “D90” corresponds to the value under which 90% of the particles has a lower volume diameter. “D10” corresponds to the value under which 10% of the particles has a lower volume diameter.

[2] = Ring shear test: flow function coefficient and cohesion (Jenike-Johanson RST-XS, ASTM D6773-16); format: physicochemical; details: neat particles; for average cohesion: four lots (FIG. 3); for average FFc (flow function coefficient): four lots, pre-load 3 kPa (FIG. 2)
Excerpt: “Flow function”, “flow function coefficient”, or FFc is a parameter commonly used to rank the flowability of a particulate sample, which could be a sample of neat API particles or a blend containing API particles plus additives. • Powder flowability is ranked as follows: • FFc<1 not flowing • 1<FFc<2 very cohesive • 2<FFc<4 Cohesive • 4<FFc<10 easy flowing • FFc>10 free flowing The measurement of FFc and Cohesion outlined below follows the procedures described in ASTM D6773-16. […] To test FFc and Cohesion, a particulate sample is added to a commercially available ring shear testing device, such as a Jenike-Johanson RST-XS ring shear tester. Such testing is familiar to the person of ordinary skill in the art. In general, the powder is loaded into an annular trough and a consolidated powder bed is formed. A normal stress (σp) is applied to the consolidated powder bed and the pre-shear stress (ζp) is measured. The normal stress is applied as a vertical load through an annular lid. The shear cell rotates relative to the lid and the torque necessary for shearing is measured. Repeat measurements with a series of values of normal stress are applied. When the measured shear stress values (Y-axis) are plotted as function of applied normal stress values (X-axis), the linear relation between them is called the yield locus. The yield locus line can be used to determine a unique relationship between normal stress and shear stress; this is known as a Mohr circle. The yield locus line represents a tangential line of all Mohr circles. The outer larger radius circle corresponds to pre-shear conditions (σp, ζp) and defines the Major Principal Stress, MPS (σ1). The smaller radius circle defines the Unconfined Yield Stress, UYS (σc). Flow function coefficient or FFc is the ratio of Major Principle Stress (MPS) to the Unconfined Yield Strength (UYS): Cohesion is the propensity for particles within a sample to self-associate or “stick together”. The ring shear tester measures cohesion at the same time that it measure FFc. The intercept of yield locus line at zero normal stress (i.e., where the extrapolation of the yield locus line intercepts the Y axis) is known as powder cohesion, and is expressed in Pascal (Pa) units. Lower cohesion is associated with better powder flowability. Further, cohesion predicts how particulate samples will behave when stored, for example when stored in a silo. […] The flow function coefficient (FFc) was measured as described above to quantify the flow properties of neat diroximel fumarate particles of Example 1 (dry milled) and Example 2 (wet milled and ripened). […]

[3] = dry milled API, representative commercial lot
[4] = dry milled API, (D90 − D10)/D50
[5] = final PSD after ripening, (D90 − D10)/D50
[6] = final product, wet milled and ripened in IPAC/IPA, 43 °C

Structure (SMILES) | Final PSD after ripening D10 [1] [μm] | Final PSD after ripening D50 [1] [μm] | Final PSD after ripening D90 [1] [μm] | PSD after wet milling D10 ([1]; before ripening) [μm] | PSD after wet milling D50 ([1]; before ripening) [μm] | PSD after wet milling D90 ([1]; before ripening) [μm] | D10 [1, 3] [μm] | D50 [1, 3] [μm] | D90 [1, 3] [μm] | Span [1, 4] | Span [1, 5] | average cohesion [2] [Pa] | average FFc (flow function coefficient) [2] | D10 (values across lots) [1] | span (values across lots) [1] | median particle size D50, in-process after wet milling ([1]; IPAC/IPA slurry, after 23 volume turnovers, before ripening) [microns] | Span ([1]; final product, wet milled and ripened in IPAC/IPA) | D10 [1, 6] [μm] | D50 [1, 6] [μm] | D90 [1, 6] [μm]
COC(=O)/C=C/C(=O)OCCN1C(=O)CCC1=O [compound 1, diroximel fumarate] | 37.2 | 89.3 | 162.5 | 11.6 | 53.0 | 155 | 17 | 96 | 347 | 3.4 | 1.4 | – | – | – | – | – | – | – | – | –
COC(=O)/C=C/C(=O)OCCN1C(=O)CCC1=O [Example 1, diroximel fumarate] | – | – | – | – | – | – | – | – | – | – | – | 270 | less than 4 | 16-18 μm | 2.9-3.4 | – | – | – | – | –
COC(=O)/C=C/C(=O)OCCN1C(=O)CCC1=O [Example 2, diroximel fumarate] | – | – | – | – | – | – | – | – | – | – | – | 219 | about 4 | 37.2-41.0 μm | 1.4-1.7 | – | – | – | – | –
COC(=O)/C=C/C(=O)OCCN1C(=O)CCC1=O [Example 6, diroximel fumarate] | – | – | – | – | – | – | – | – | – | – | – | – | – | – | – | 43 | 1.4 | 40 | 92 | 173

Next, values leading:

Final PSD after ripening D10 [1] [μm] | Final PSD after ripening D50 [1] [μm] | Final PSD after ripening D90 [1] [μm] | PSD after wet milling D10 ([1]; before ripening) [μm] | PSD after wet milling D50 ([1]; before ripening) [μm] | PSD after wet milling D90 ([1]; before ripening) [μm] | D10 [1, 3] [μm] | D50 [1, 3] [μm] | D90 [1, 3] [μm] | Span [1, 4] | Span [1, 5] | average cohesion [2] [Pa] | average FFc (flow function coefficient) [2] | D10 (values across lots) [1] | span (values across lots) [1] | median particle size D50, in-process after wet milling ([1]; IPAC/IPA slurry, after 23 volume turnovers, before ripening) [microns] | Span ([1]; final product, wet milled and ripened in IPAC/IPA) | D10 [1, 6] [μm] | D50 [1, 6] [μm] | D90 [1, 6] [μm] | Structure (SMILES)
– | – | – | – | – | – | 16 | 95 | 302 | 3.0 | – | – | – | – | – | – | – | – | – | – | COC(=O)/C=C/C(=O)OCCN1C(=O)CCC1=O [compound 4, diroximel fumarate]
41.0 | 111.9 | 222.9 | 9.15 | 35.2 | 116 | 18 | 101 | 307 | 2.9 | 1.6 | – | – | – | – | – | – | – | – | – | COC(=O)/C=C/C(=O)OCCN1C(=O)CCC1=O [compound 3, diroximel fumarate]
40.7 | 96.1 | 204.5 | 12.4 | 66.3 | 179 | 17 | 106 | 347 | 3.1 | 1.7 | – | – | – | – | – | – | – | – | – | COC(=O)/C=C/C(=O)OCCN1C(=O)CCC1=O [compound 2, diroximel fumarate]
